Reference: publication PMC6112376, “Comprehensive Analyses and Prioritization of Tox21 10K Chemicals Affecting Mitochondrial Function by in-Depth Mechanistic Studies” (Environmental Health Perspectives, 2018)
Read-outs that look alike come from different tables or passages of the source.

How the values were obtained:
[1] = test system: Caenorhabditis elegans (Bristol N2); assay: C. elegans larval development and growth assay
[2] = test system: p53 (p53-bla HCT-116 cells); assay: p53 β-lactamase reporter gene assay; type: cell-based, human; details: 16 h incubation, mean±SD of three experiments
[3] = test system: Nrf2/ARE (ARE-bla HepG2 cells); assay: ARE β-lactamase reporter gene assay; type: cell-based, human; details: 16 h incubation, mean±SD of three experiments
HepG2 cells [4] = assay: Intracellular ATP content (cell viability) assay; type: cell-based, human; details: for IC50: Homo sapiens, HepG2, 40 h
[5] = test system: isolated rat liver mitochondria; assay: Oxygen consumption, Clark-type oxygen electrode; type: biochemical
HepG2 cells [6] = details: cited from earlier work
rat primary hepatocytes [7] = test system: rat primary hepatocytes
HepG2 cells [8] = assay: cells; details: Homo sapiens
HepG2 cells [9] = assay: ROS-Glo hydrogen peroxide (ROS) assay; type: cell-based, human
[10] = test system: Caenorhabditis elegans strain PE255; assay: In vivo C. elegans ATP status assay
[11] = test system: HeLa cells expressing YFP-Parkin; assay: Parkin translocation assay; type: cell-based, human
hNSC = assay: MMP assay in human neural stem cells (hNSC); type: cell-based; details: Homo sapiens, Neural stem cell, 1 h, read-out: hNSC IC50 (MMP)
rat primary hepatocytes [12] = assay: MMP assay in rat primary hepatocytes; details: Rattus norvegicus, Hepatocyte
[13] = test system: mitochondrial respiratory chain complex V; type: biochemical, rat
[14] = target: T1, mitochondrial respiratory chain complex II (Rattus norvegicus, UniProt P21913+Q641Z9+Q6PCT8+Q920L2); assay: Respiratory chain complex II activity; type: biochemical; details: tested up to 100μM
T1 construct: Submitochondrial particles were prepared by subjecting the intact rat mitochondria, isolated as described above, to three successive freeze–thaw cycles; from tissue; host or cells: rat liver mitochondria (submitochondrial particles)
T1 sequence (Q920L2 35-656): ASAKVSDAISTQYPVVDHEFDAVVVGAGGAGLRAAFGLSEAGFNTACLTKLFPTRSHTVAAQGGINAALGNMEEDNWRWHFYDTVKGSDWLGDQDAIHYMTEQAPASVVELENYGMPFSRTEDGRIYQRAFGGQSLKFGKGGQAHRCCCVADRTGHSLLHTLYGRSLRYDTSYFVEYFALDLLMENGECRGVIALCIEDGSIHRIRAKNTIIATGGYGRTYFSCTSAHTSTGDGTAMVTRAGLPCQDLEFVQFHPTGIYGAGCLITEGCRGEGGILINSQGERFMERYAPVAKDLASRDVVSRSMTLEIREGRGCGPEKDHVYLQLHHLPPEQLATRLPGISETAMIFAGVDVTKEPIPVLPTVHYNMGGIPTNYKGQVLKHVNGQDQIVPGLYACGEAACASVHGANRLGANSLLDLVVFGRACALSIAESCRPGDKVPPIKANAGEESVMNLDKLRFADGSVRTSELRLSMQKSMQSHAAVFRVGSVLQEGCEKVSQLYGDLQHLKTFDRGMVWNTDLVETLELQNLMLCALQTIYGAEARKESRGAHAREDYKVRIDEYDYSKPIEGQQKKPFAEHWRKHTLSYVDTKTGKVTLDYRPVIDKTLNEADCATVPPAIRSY
T1 sequence (P21913 31-282): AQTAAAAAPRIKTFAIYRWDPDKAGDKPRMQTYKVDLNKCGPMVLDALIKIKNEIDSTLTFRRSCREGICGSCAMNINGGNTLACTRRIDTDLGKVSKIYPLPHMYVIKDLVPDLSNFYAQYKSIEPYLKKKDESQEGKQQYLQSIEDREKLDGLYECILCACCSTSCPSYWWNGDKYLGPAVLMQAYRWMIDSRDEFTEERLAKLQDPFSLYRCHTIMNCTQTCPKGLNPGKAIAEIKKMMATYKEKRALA
T1 sequence (Q641Z9 1-169): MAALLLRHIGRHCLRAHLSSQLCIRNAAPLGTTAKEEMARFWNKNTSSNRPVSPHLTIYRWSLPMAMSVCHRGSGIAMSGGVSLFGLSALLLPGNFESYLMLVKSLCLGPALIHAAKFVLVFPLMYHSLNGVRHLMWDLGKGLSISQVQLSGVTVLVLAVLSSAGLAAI
T1 sequence (Q6PCT8 57-159): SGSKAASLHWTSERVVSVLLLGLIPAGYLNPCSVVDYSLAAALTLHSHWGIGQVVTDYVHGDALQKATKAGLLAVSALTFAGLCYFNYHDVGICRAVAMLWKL

[15] = test system: mitochondrial respiratory chain complex IV; type: biochemical, rat
[16] = test system: mitochondrial respiratory chain complex I; type: biochemical, rat
[17] = test system: mitochondrial respiratory chain complex III; type: biochemical, rat
[18] = HepG2, 1 h, read-out: HepG2 IC50 Galactose (MMP)
[19] = HepG2, 1 h, read-out: HepG2 IC50 Glucose (MMP)
[20] = 1 h, read-out: Rat hepatocytes IC50 (MMP)

## O=C(Nc1ccccc1)Nc1ccccc1 [Diphenylurea]
[1]; 0.5 µM
  EXT: mean difference in nematode size relative to plate controls: 0.0636
[1]; 1 µM
  EXT: mean difference in nematode size relative to plate controls: 0.005834
[1]; 5 µM
  EXT: mean difference in nematode size relative to plate controls: -0.06608
[1]; 10 µM
  EXT: mean difference in nematode size relative to plate controls: 0.006337
[1]; 25 µM
  EXT: mean difference in nematode size relative to plate controls: 0.05471
[1]; 50 µM
  EXT: mean difference in nematode size relative to plate controls: 0.1792
[1]; 75 µM
  EXT: mean difference in nematode size relative to plate controls: 0.1069
[1]; 100 µM
  EXT: mean difference in nematode size relative to plate controls: 0.0228
[1]; 0.5–100μM
  effect on larval growth (in words): did not affect growth
[2]
  p53 (HCT-116) EC50: Inactive
[3]
  ARE (HepG2) EC50: Inactive
HepG2 cells [4]
  ATP (HepG2, galactose) IC50: Inactive
  ATP (HepG2, glucose) IC50: Inactive
[5]
  Potential Mechanism: Uncoupler at low concentrations (20 µM), and Uncoupler + inhibitor at high concentrations (100 µM)
[5]; 0.8 µM
  I-ADP, % of control (O2 consumption rate): 97 (36.2) % of control
  I-sub, % of control (O2 consumption rate): 105 (11.3) % of control
  II-ADP, % of control (O2 consumption rate): 91 (57.2) % of control
  II-sub, % of control (O2 consumption rate): 106 (19.6) % of control
[5]; 4 µM
  I-ADP, % of control (O2 consumption rate): 93 (34.6) % of control
  I-sub, % of control (O2 consumption rate): 104 (11.2) % of control
  II-ADP, % of control (O2 consumption rate): 83 (52.5) % of control
  II-sub, % of control (O2 consumption rate): 97 (18.0) % of control
[5]; 20 µM
  I-ADP, % of control (O2 consumption rate): 96 (35.6) % of control
  I-sub, % of control (O2 consumption rate): 144 (15.5) % of control
  II-ADP, % of control (O2 consumption rate): 91 (57.6) % of control
  II-sub, % of control (O2 consumption rate): 129 (23.9) % of control
[5]; 100 µM
  I-ADP, % of control (O2 consumption rate): 38 (19.1) % of control
  I-sub, % of control (O2 consumption rate): 167 (35.8) % of control
  II-ADP, % of control (O2 consumption rate): 25 (15.1) % of control
  II-sub, % of control (O2 consumption rate): 55 (19.1) % of control
HepG2 cells [6]
  MMP assays efficacy (%) qHTS-HepG2: -111±9%
HepG2 cells [6]; read-out: MMP assays IC50 (µM) qHTS-HepG2
  IC50: 1.6 ± 0.74 µM
Rat primary hepatocytes [7]
  MMP assays efficacy (%) Rat Hepatocytes: -72±30%
  Rat hepatocytes (efficacy) (MMP): 15.4±2.88 ( −117±8.21 ) %
HepG2 cells [8]; [18]
  IC50: 10.3 µM
HepG2 cells [8]; [19]
  IC50: 7.73 µM
HepG2 cells [8]; HepG2, read-out: MMP assays IC50 (µM) HepG2
  IC50: 2.51 µM
HepG2 cells [8]; HepG2, read-out: MMP assays efficacy (%) HepG2
  Emax: 131%
HepG2 cells [9]
  ROS (HepG2) EC50: Inactive
[10]; 0.5 µM
  LUM: mean difference in luminescence (ATP content) relative to plate controls: 0.08612
[10]; 1 µM
  LUM: mean difference in luminescence (ATP content) relative to plate controls: 0.1632
[10]; 5 µM
  LUM: mean difference in luminescence (ATP content) relative to plate controls: 0.3729
[10]; 10 µM
  LUM: mean difference in luminescence (ATP content) relative to plate controls: 1.1516
[10]; 25 µM
  LUM: mean difference in luminescence (ATP content) relative to plate controls: 1.501
[10]; 50 µM
  LUM: mean difference in luminescence (ATP content) relative to plate controls: 1.222
[10]; 75 µM
  LUM: mean difference in luminescence (ATP content) relative to plate controls: 0.9702
[10]; 100 µM
  LUM: mean difference in luminescence (ATP content) relative to plate controls: 0.9744
[10]; 0.5–100μM
  effect on ATP content (in words): statistically significant decreases in ATP content
[10]; Caenorhabditis elegans, read-out: LEC LUM: lowest effect concentration for luminescence, a measure of nematode ATP content
  minimal effective concentration: 10 µM
[11]
  Parkin recruitment: Inactive
hNSC
  IC50: 12.1 µM
Rat primary hepatocytes [12]; [20]
  IC50: 15.4 µM
Rat primary hepatocytes [12]; read-out: MMP assays IC50 (µM) Rat Hepatocytes
  IC50: 8.46 ± 2.39 µM

## CCCCCC[C@H]1C(=O)O[C@H](C)[C@H](NC(=O)c2cccc(NC=O)c2O)C(=O)O[C@@H](C)[C@@H]1OC(=O)CC(C)C [Antimycin A, reference compound]
[2]; Homo sapiens
  EC50: 0.31 ± 0.04 µM
[3]; Homo sapiens, HepG2, read-out: ARE (HepG2) EC50
  EC50: 0.47 ± 0.42 µM
HepG2 cells [4]; read-out: ATP (HepG2, galactose) IC50
  IC50: 0.05 µM
HepG2 cells [4]; read-out: ATP (HepG2, glucose) IC50
  IC50: 0.02 µM
[5]
  Potential Mechanism: Inhibitor
  effect on mitochondrial respiration (in words): significantly inhibited both glutamate/malate-driven respiration and succinate-driven respiration
[5]; 0.00128 µM
  I-ADP, % of control (O2 consumption rate): 101 (37.5) % of control
  I-sub, % of control (O2 consumption rate): 104 (11.2) % of control
  II-ADP, % of control (O2 consumption rate): 102 (64.0) % of control
  II-sub, % of control (O2 consumption rate): 105 (19.5) % of control
[5]; 0.0064 µM
  I-ADP, % of control (O2 consumption rate): 90 (33.5) % of control
  I-sub, % of control (O2 consumption rate): 93 (10.0) % of control
  II-ADP, % of control (O2 consumption rate): 83 (52.2) % of control
  II-sub, % of control (O2 consumption rate): 92 (17.1) % of control
[5]; 0.032 µM
  I-ADP, % of control (O2 consumption rate): 59 (22.1) % of control
  I-sub, % of control (O2 consumption rate): 86 (9.3) % of control
  II-ADP, % of control (O2 consumption rate): 39 (24.5) % of control
  II-sub, % of control (O2 consumption rate): 67 (12.4) % of control
[5]; 0.16 µM
  I-ADP, % of control (O2 consumption rate): 17 (6.4) % of control
  I-sub, % of control (O2 consumption rate): 53 (5.7) % of control
  II-ADP, % of control (O2 consumption rate): 10 (6.4) % of control
  II-sub, % of control (O2 consumption rate): 36 (6.7) % of control
[5]; 0.8 µM
  I-ADP, % of control (O2 consumption rate): 16 (6.1) % of control
  I-sub, % of control (O2 consumption rate): 63 (6.8) % of control
  II-ADP, % of control (O2 consumption rate): 10 (6.4) % of control
  II-sub, % of control (O2 consumption rate): 30 (5.6) % of control
[5]; 4 µM
  I-ADP, % of control (O2 consumption rate): 13 (4.8) % of control
  I-sub, % of control (O2 consumption rate): 51 (5.5) % of control
  II-ADP, % of control (O2 consumption rate): 12 (7.5) % of control
  II-sub, % of control (O2 consumption rate): 31 (5.7) % of control
[5]; 20 µM
  I-ADP, % of control (O2 consumption rate): 15 (5.7) % of control
  I-sub, % of control (O2 consumption rate): 54 (5.8) % of control
  II-ADP, % of control (O2 consumption rate): 9 (5.8) % of control
  II-sub, % of control (O2 consumption rate): 32 (6.0) % of control
[5]; 100 µM
  I-ADP, % of control (O2 consumption rate): 9 (4.8) % of control
  I-sub, % of control (O2 consumption rate): 26 (5.6) % of control
  II-ADP, % of control (O2 consumption rate): 7 (4.0) % of control
  II-sub, % of control (O2 consumption rate): 13 (4.6) % of control
[13]
  Complex V % inhibition (activity call): Inactive
[14]
  Complex II % inhibition (activity call): Inactive
Rat primary hepatocytes [7]
  Rat hepatocytes (efficacy) (MMP): 2.65±1.08 ( −94.9±3.37 ) %
HepG2 cells [8]; [18]
  IC50: 0.25 µM
HepG2 cells [8]; [19]
  IC50: 2.79 µM
[15]
  Complex IV % inhibition (activity call): Inactive
[16]
  Complex I % inhibition (activity call): Inactive
[17]
  inhibitory effect on Complex III at (concentration): 0.032 µM
[17]; at 0.032μM
  Complex III % inhibition: 71.1±2.91 at 0.032μM %
HepG2 cells [9]; Homo sapiens, HepG2, 2 h, read-out: ROS (HepG2) EC50
  EC50: 6.83 µM
[11]
  Parkin recruitment: Active
[11]; 3 h
  Parkin translocation into mitochondria (in words): significantly increased Parkin translocation into mitochondria
hNSC
  IC50: 2.91 µM
Rat primary hepatocytes [12]; [20]
  IC50: 2.65 µM
